From patent US5182387A, “Bis-dibenzoazepine compounds” (Merrell Dow Pharmaceuticals Inc., priority 1991, dated 1993)
Values after ≈ are worked out from the molar mass of the structure shown. Where a name gives a salt, the structure may show the parent alone. Read-outs that look alike come from different tables or passages of the source.

Experiments:
[1] = system: multidrug resistant Plasmodium falciparum clone W-2; assay: antimalarial activity using multidrug resistant Plasmodium falciparum clone W-2; assay type: cell-based; conditions: read-out: IC50, ng/ml CLONE W-2
Experimental: (§1) Referring to Table 2, the antimalarial activity of compounds of formula 1 were tested using the multidrug resistant Plasmodium falciparum clone W-2. The methods for the growth of the malaria parasite, the testing of drugs for antimalarial effects and the clone are described in Science 242, 1301-1303 1988.

[2] = system: multidrug resistant Plasmodium falciparum clone W-2; assay: reversal of the chloroquine resistance in clone W-2; assay type: cell-based
Experimental: as §1

[3] = system: chloroquine-sensitive strain of Plasmodium falciparum (clone D6); assay: antimalarial activity against chloroquine-sensitive strain of Plasmodium falciparum (clone D6); assay type: cell-based
Experimental: As shown by Table 1, the compounds of the present invention have antimalarial activity on their own without other antimalarial agents. This antimalarial activity can be tested using a number of methods. For example, the compounds of formula 1 listed in Table 1 were tested for antimalarial activity against chloroquine-sensitive strain of Plasmodium falciparum (clone D6).
The methods for the growth of the malaria parasite, the testing of drugs for antimalarial effects and the clone are described in Science 242, 1301-1303 1988.

[4] = system: chloroquine-resistant Plasmodium falciparum; assay: synergistic effect with chloroquine, isobologram analysis; assay type: cell-based; conditions: chloroquine-resistant P. falciparum, data not shown
Experimental: Isobologram analysis was carried out according to the method of Martin, et al., (1987) Science 235, 899-901 and Berenbaum, (1978) Journal of Infectious Diseases 137, 122-130 (data not shown).

[5] = system: Plasmodium falciparum; conditions: as described in Science 242, 1301-1303 1988; cited from earlier work
[6] = 50% reversal of the chloroquine resistance in clone W-2, read-out: Conc. in ng/ml for 50% Reversal of chloroquine
[7] = chloroquine-sensitive clone D6, read-out: IC50, ng/ml CLONE D6
[8] = D6, read-out: IC50, ng/ml CLONE D6

| Compound | IC50 [1] [ng/mL] | EC50 [2, 6] [ng/mL] | IC50 [3, 7] [ng/mL] | synergistic effect with antimalarial agents [4] | IC50 [3, 8] [ng/mL] | EC50 ([2]; read-out: Conc. in ng/ml for 50% Reversal of chloroquine) [ng/mL] | utility in reversing chloroquine resistance [5] |
| --- | --- | --- | --- | --- | --- | --- | --- |
| CN(CCCN1c2ccccc2CCc2ccccc21)CC(=O)N(C)CCCN1c2ccccc2CCc2ccccc21 [Example 1, N,N'-Bis[3-(10,11-dihydro-5H-dibenzo[b,f]azepino)propyl]-N,N'-dimethylacetamide Oxalate] | 3570 | > 200 |  |  |  |  |  |
| CN(CCCN1c2ccccc2CCc2ccccc21)CCN(C)CCCN1c2ccccc2CCc2ccccc21 [Example 2, N,N'-Bis[3-(10,11-dihydro-5H-dibenzo[b,f]azepino)propyl]-N,N'-dimethylethanediamine Maleate] | 1510 | > 200 |  |  |  |  |  |
| CN(CCCN(C)CCCN1c2ccccc2CCc2ccccc21)CCCN1c2ccccc2CCc2ccccc21 [Example 3, N,N'-Bis[3-(10,11-dihydro-5H-dibenzo[b,f]azepino)propyl]-N,N'-dimethylpropanediamine Maleate] | 385 | 72 |  |  |  |  |  |
| CN(CCCCN(C)CCCN1c2ccccc2CCc2ccccc21)CCCN1c2ccccc2CCc2ccccc21 [Example 4, N,N'-Bis[3-(10,11-dihydro-5H-dibenzo[b,f]azepino)propyl]-N,N'-dimethylbutanediamine Fumarate] | 56 | 14 | 240 | synergistic effect with chloroquine |  |  |  |
| CN(CCCCCN(C)CCCN1c2ccccc2CCc2ccccc21)CCCN1c2ccccc2CCc2ccccc21 [Example 5, N,N'-Bis[3-(10,11-dihydro-5H-dibenzo[b,f]azepino)propyl]-N,N'-dimethylpentanediamine Maleate] | 180 | 56 |  |  |  |  |  |
| CN(CCCCCCN(C)CCCN1c2ccccc2CCc2ccccc21)CCCN1c2ccccc2CCc2ccccc21 [Example 6, N,N'-Bis[3-(10,11-dihydro-5H-dibenzo[b,f]azepino)propyl]-N,N'-dimethylhexanediamine Fumarate] | 140 | 52 | 210 |  |  |  |  |
| c1ccc2c(c1)CCc1ccccc1N2CCCNCCCCNCCCN1c2ccccc2CCc2ccccc21 [Example 8, N,N'-Bis[3-(10,11-dihydro-5H-dibenzo[b,f]azepino)propyl]butanediamine Maleate] | 110 | 105 | 48 |  |  |  |  |
| c1ccc2c(c1)CCc1ccccc1N2CCCN1CCN(CCCN2c3ccccc3CCc3ccccc32)CC1 [Example 9, 1,4-Bis[3-(10,11-dihydro-5H-dibenzo[b,f]azepino)propyl]piperazine Maleate] | > 5000 | > 200 |  |  |  |  |  |
| CCN(CC)CCCC(C)Nc1ccnc2cc(Cl)ccc12 (centres unmarked) [chloroquine, reference compound] | 160 (≈ 0.5 µM) |  |  |  | 7 (≈ 0.0219 µM) |  |  |
| CNCCCN1c2ccccc2CCc2ccccc21 [desipramine, reference compound] | 300 (≈ 1.13 µM) |  |  |  | 15000 (≈ 56.3 µM) | 35 | shown to have utility in reversing chloroquine resistance |
